≈ marks a conversion by molar mass, not a printed value.
Tests used:
[1] = tested on: KB cells; experiment: antitumor activity in vitro with cultured KB cells (growth inhibition, Coulter counter); type: cell-based, human; details: four days, 37° C., MEM - 10% calf serum; for IC50: Homo sapiens, KB, 96 h, read-out: ED50 (concentration at which the growth inhibition was substantially 50% based on the control); for ED50 (concentration at which the growth inhibition was substantially 50% based on the control): 5760 min
Description: The antitumor activity of the compounds of the present invention was determined in vitro with cultured KB cells.
The experiment was conducted by using KB derived from a human epidermoid carcinoma of the mouth and Eagle's minimal essential medium (MEM) - 10% calf serum at 37° C. in a carbon dioxide incubator (5% CO2).
KB cells were diluted at a dilution rate of 1×10^4 /ml medium. 2 ml of the sample thus formed was placed in a 30-mm plastic dish so that the final concentration of the compounds of the present invention would be 100, 30, 10, 3 or 1 μg/ml. After four days, the cells were peeled from the dish surface with trypsin and the number of the cells was counted with a Coulter counter.
The criterion according to NCI (U.S.A.) was employed to determine the concentration (ED50) at which the growth inhibition was substantially 50% based on the control.

[2] = tested on: S-180 salcoma cells; experiment: antitumor activity in ICR mice inoculated with S-180 salcoma cells (increase in life-span); type: in vivo, mouse (female ICR mice); details: intra-peritoneal, once a day Day 1 to 5; for Number of surviving mice: observation period 52 days, saline control 0/12, DMSO 0/7; for Prolongation extent of life: saline control 0, DMSO -11; for Average days of the prolongation of life: saline control 13.3 ± 3.7, DMSO 12.0 ± 3.0
Description: Female ICR mice being 6 weeks old were inoculated abdominally with 0.2 ml of a sample of cell suspension in PBS containing 5×10^5 S-180 salcoma cells, on Day 0. Once a day for 5 days (Day 1 to 5) from the next day, they were inoculated abdominally with the above shown compounds of A-IV-b, B-VI-6 and D-I-a, respectively, dispersed in 6 wt. % dimethylsulfoxide solution, with intra-peritoneal injection of 25 or 50 mg/kg. A saline and a solvent were used for reference control. 12 to 7 mice were used in the saline control and the drug test, respectively. Antitumor activity was determined by the mean survival time (prolongation of life) of the test group (T) with that of the control group (C) and is shown in terms of an increase in life-span (prolongation extent of life), that is, ((T/C)×100%). The observation period was 52 days and survivors were excluded from calculation.

Structure (SMILES): COc1cc(CN2C(=O)OCC2Cc2ccc3c(c2)OCO3)cc(OC)c1OC (stereo not shown) [A-III]
- IC50 [1]: 35 µg/mL (≈ 87.2 µM)

Structure (SMILES): COc1cc2c(c(OC)c1OC)-c1cc3c(cc1CC1COC(=O)N1C2)OCO3 (stereo not shown) [A-IV-a]
- ED50 (concentration at which the growth inhibition was substantially 50% based on the control) [1]: 47.0 µg/mL (≈ 118 µM)

Structure (SMILES): COc1cc2c(c(OC)c1OC)-c1cc3c(cc1CC1COC(=O)N1C2)OCO3 (stereo not shown) [A-IV-b]
- ED50 (concentration at which the growth inhibition was substantially 50% based on the control) [1]: < 0.3 µg/mL
- Number of surviving mice ([2]; 25 mg/kg): 0/7
- Prolongation extent of life ([2]; 25 mg/kg): -4%
- Average days of the prolongation of life ([2]; 25 mg/kg): 12.9 ± 2.3 days
- Number of surviving mice ([2]; 50 mg/kg): 0/7
- Prolongation extent of life ([2]; 50 mg/kg): 40%
- Average days of the prolongation of life ([2]; 50 mg/kg): 19.0 ± 5.5 days

Structure (SMILES): COc1cc2c(c(OC)c1O)-c1cc3c(cc1CC1COC(=O)N1C2)OCO3 (stereo not shown) [A-IX-a]
- IC50 [1]: 50 µg/mL (≈ 130 µM)

Structure (SMILES): COc1cc2c(c(OC)c1OC)-c1cc3c(cc1CC(CO)N(C)C2)OCO3 (stereo not shown) [A-V-a]
- IC50 [1]: 1.5 µg/mL (≈ 3.87 µM)

Structure (SMILES): COc1cc2c(c(OC)c1OC)-c1cc3c(cc1CC(CO)N(C)C2)OCO3 (stereo not shown) [A-V-b]
- ED50 (concentration at which the growth inhibition was substantially 50% based on the control) [1]: 1.1 µg/mL (≈ 2.84 µM)

Structure (SMILES): COc1cc2c(c(OC)c1OC)-c1cc3c(cc1CC(COC(C)=O)N(C)C2)OCO3 (stereo not shown) [A-VI-a]
- IC50 [1]: 1.65 µg/mL (≈ 3.84 µM)

Structure (SMILES): COc1cc2c(c(OC)c1OC)-c1cc3c(cc1CC(CO)N(C=O)C2)OCO3 (stereo not shown) [A-VII-a]
- IC50 [1]: < 0.3 µg/mL

Structure (SMILES): COc1c(O)cc2c(c1OC)-c1cc3c(cc1CC1COC(=O)N1C2)OCO3 (stereo not shown) [A-VIII-a]
- IC50 [1]: 17 µg/mL (≈ 44.1 µM)

Structure (SMILES): COc1cc2c(c(OC)c1OC)-c1cc3c(cc1CC1CNC(=O)N1C2)OCO3 (stereo not shown) [B-VI-b]
- IC50 [1]: < 0.3 µg/mL
- Number of surviving mice ([2]; 25 mg/kg): 2/7
- Prolongation extent of life ([2]; 25 mg/kg): 50%
- Average days of the prolongation of life ([2]; 25 mg/kg): 20.2 ± 4.2 days
- Number of surviving mice ([2]; 50 mg/kg): 0/7
- Prolongation extent of life ([2]; 50 mg/kg): 120%
- Average days of the prolongation of life ([2]; 50 mg/kg): 29.7 ± 3.9 days

Structure (SMILES): COc1cc2c(c(OC)c1OC)-c1cc3c(cc1CC1CN(CC(=O)OC(C)(C)C)C(=O)N1C2)OCO3 (stereo not shown) [B-VII-b]
- IC50 [1]: 1.7 µg/mL (≈ 3.32 µM)

Structure (SMILES): COc1cc2c(c(OC)c1OC)-c1cc3c(cc1CC1CN(CC(=O)O)C(=O)N1C2)OCO3 (stereo not shown) [B-VIII-b]
- IC50 [1]: 5.4 µg/mL (≈ 11.8 µM)

Structure (SMILES): COc1cc(CN2C(=O)NCC2Cc2ccc3c(c2)OCO3)cc(OC)c1OC (stereo not shown) [B-V]
- IC50 [1]: 47 µg/mL (≈ 117 µM)

Structure (SMILES): COc1cc(C2c3cc4c(cc3CC3COC(=O)N32)OCO4)cc(OC)c1OC [D-I-a]
- Number of surviving mice ([2]; 25 mg/kg): 0/7
- Prolongation extent of life ([2]; 25 mg/kg): 62%
- Average days of the prolongation of life ([2]; 25 mg/kg): 21.9 ± 4.0 days
- Number of surviving mice ([2]; 50 mg/kg): 0/7
- Prolongation extent of life ([2]; 50 mg/kg): 48%
- Average days of the prolongation of life ([2]; 50 mg/kg): 20.0 ± 5.6 days

Structure (SMILES): COc1cc(C2c3cc4c(cc3C(N=[N+]=[N-])C3COC(=O)N23)OCO4)cc(OC)c1OC [D-X-a]
- ED50 (concentration at which the growth inhibition was substantially 50% based on the control) [1]: 0.68 µg/mL (≈ 1.54 µM)

Structure (SMILES): COc1cc(C2c3cc4c(cc3C(N=[N+]=[N-])C3COC(=O)N23)OCO4)cc(OC)c1OC [D-X-b]
- ED50 (concentration at which the growth inhibition was substantially 50% based on the control) [1]: < 0.3 µg/mL

Structure (SMILES): COc1cc(C2c3cc4c(cc3C(N)C3COC(=O)N23)OCO4)cc(OC)c1OC [D-XI-b]
- IC50 [1]: < 0.3 µg/mL
